The structures appear in SMILES notation.

For the assay, the target named is T1, human GCS (glucosylceramide synthase) (Homo sapiens, UniProt Q16739).
T1 construct: made in house; host or cells: Expi293F cells (transient expression; microsome fraction)
T1 sequence (Q16739 1-394): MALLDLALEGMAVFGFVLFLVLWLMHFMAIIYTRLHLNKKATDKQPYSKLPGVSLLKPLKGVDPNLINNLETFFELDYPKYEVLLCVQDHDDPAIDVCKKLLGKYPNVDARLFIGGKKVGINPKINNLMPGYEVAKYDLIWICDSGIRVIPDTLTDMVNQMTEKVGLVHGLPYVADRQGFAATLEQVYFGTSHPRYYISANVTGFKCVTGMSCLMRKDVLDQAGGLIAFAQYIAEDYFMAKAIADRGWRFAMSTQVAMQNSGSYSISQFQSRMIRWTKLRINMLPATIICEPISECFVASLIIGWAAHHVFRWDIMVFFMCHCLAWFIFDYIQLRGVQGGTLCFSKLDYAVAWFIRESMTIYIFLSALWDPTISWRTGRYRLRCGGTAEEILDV
Put plainly: Glucosylceramide Synthase (GCS) Assay. The format is biochemical. To be noted: test compound 10 μM; microsome fraction of Expi293F cells expressing human GCS; 1.7 μM UDP-glucose, 3 μM C8 ceramide; room temperature 60 min; C8 glucosylceramide by Rapidfire MS/MS; read-out: GCS enzyme inhibitory rate at 10 μM (%). In a few lines:
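Test compounds were run at a final 10 μM against liposomal C8 ceramide (3 μM) and UDP-glucose at its Km (1.7 μM). Human GCS came as microsomes from transfected Expi293F cells, incubated 60 min at room temperature, pH 7.5. Product measured by RapidFire MS/MS; 0% and 100% inhibition were DMSO and no-enzyme wells.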
Consider `CC(C)(O)c1ccc(NC(=O)c2cn(CC3COC3)nc(-c3ccccc3OCC(F)F)c2=O)cc1` [Example 180, 6-[2-(2,2-difluoroethoxy)phenyl]-N-[4-(2-hydroxypropan-2-yl)phenyl]-2-[(oxetan-3-yl)methyl]-5-oxo-2,5-dihydropyridazine-4-carboxamide], for which the inhibition at 10 µM was determined as 96%.

Take `COc1cc(C(C)(C)O)ccc1NC(=O)c1cc(C)nn(-c2ccccc2OCC(F)F)c1=O` [Example 151, 2-[2-(2,2-difluoroethoxy)phenyl]-N-[4-(2-hydroxypropan-2-yl)-2-methoxyphenyl]-6-methyl-3-oxo-2,3-dihydropyridazine-4-carboxamide]: the inhibition at 10 µM was 53%.

For the compound `O=C(Nc1ccc(C(=O)N2CCCCC2)cc1)c1cccn(-c2ccc(F)cc2OCC(F)(F)F)c1=O` [Example 43, 1-[4-fluoro-2-(2,2,2-trifluoroethoxy)phenyl]-2-oxo-N-[4-(piperidine-1-carbonyl)phenyl]-1,2-dihydropyridine-3-carboxamide], the inhibition at 10 µM is 95%.

Consider `O=C(Nc1cnn(CC2CC2)c1)c1cccn(-c2ccc(F)cc2OCC(F)(F)F)c1=O` [Example 40, N-[1-(cyclopropylmethyl)-1H-pyrazol-4-yl]-1-[4-fluoro-2-(2,2,2-trifluoroethoxy)phenyl]-2-oxo-1,2-dihydropyridine-3-carboxamide], for which the inhibition at 10 µM was 69%.

With `Cc1cc(C(=O)Nc2ccc(C(C)(C)O)cc2)c(=O)n(-c2ccccc2OCC(F)F)n1` [Example 136, 2-[2-(2,2-difluoroethoxy)phenyl]-N-[4-(2-hydroxypropan-2-yl)phenyl]-6-methyl-3-oxo-2,3-dihydropyridazine-4-carboxamide], the inhibition at 10 µM is 100%.

In the case of `O=C(Nc1cnc(OC(F)F)nc1)c1cccn(-c2ccc(F)cc2OCC(F)(F)F)c1=O` [Example 51, N-[2-(difluoromethoxy)pyrimidin-5-yl]-1-[4-fluoro-2-(2,2,2-trifluoroethoxy)phenyl]-2-oxo-1,2-dihydropyridine-3-carboxamide], the inhibition at 10 µM stood at 84%.

With `O=C(Nc1ccn(CC2CC2(F)F)n1)c1cccn(-c2ccc(F)cc2OCC(F)(F)F)c1=O` (racemic) [Example 55, rac-N-{1-[(2,2-difluorocyclopropyl)methyl]-1H-pyrazol-3-yl}-1-[4-fluoro-2-(2,2,2-trifluoroethoxy)phenyl]-2-oxo-1,2-dihydropyridine-3-carboxamide], the inhibition at 10 µM was determined as 88%.

For `N#Cc1cc(F)ccc1-n1cccc(C(=O)Nc2ccc(Oc3ccccc3)cc2)c1=O` [Example 30, 1-(2-cyano-4-fluorophenyl)-2-oxo-N-(4-phenoxyphenyl)-1,2-dihydropyridine-3-carboxamide], the inhibition at 10 µM amounted to 55%.

`CC(C)(O)c1ccc(NC(=O)c2cccn(-c3cc(F)ccc3OCC(F)(F)F)c2=O)cn1` [Example 125, 1-[5-fluoro-2-(2,2,2-trifluoroethoxy)phenyl]-N-[6-(2-hydroxypropan-2-yl)pyridin-3-yl]-2-oxo-1,2-dihydropyridine-3-carboxamide]: the inhibition at 10 µM was determined as 82%.

Consider `CC(C)(O)Cn1cc(C(=O)Nc2ccc(C(C)(C)O)cc2)c(=O)c(-c2ccccc2OCC(F)F)n1` [Example 174, 6-[2-(2,2-difluoroethoxy)phenyl]-2-(2-hydroxy-2-methylpropyl)-N-[4-(2-hydroxypropan-2-yl)phenyl]-5-oxo-2,5-dihydropyridazine-4-carboxamide], for which the inhibition at 10 µM amounted to 91%.

Turning to `CC(C)(O)c1ccc(NC(=O)c2cccn(-c3ccc(F)cc3OCC(F)(F)F)c2=O)cc1` [Example 42, 1-[4-fluoro-2-(2,2,2-trifluoroethoxy)phenyl]-N-[4-(2-hydroxypropan-2-yl)phenyl]-2-oxo-1,2-dihydropyridine-3-carboxamide], the inhibition at 10 µM came to 99%.

`O=C(Nc1ccc(F)cc1F)c1cn(CC2COC2)nc(-c2ccccc2OCC(F)F)c1=O` [Example 181, 6-[2-(2,2-difluoroethoxy)phenyl]-N-(2,4-difluorophenyl)-2-[(oxetan-3-yl)methyl]-5-oxo-2,5-dihydropyridazine-4-carboxamide]: the inhibition at 10 µM amounted to 97%.

Turning to `Cc1cc(C(=O)Nc2ccc(C(C)(C)O)cn2)c(=O)n(-c2ccccc2OCC(F)(F)F)n1` [Example 130, N-[5-(2-hydroxypropan-2-yl)pyridin-2-yl]-6-methyl-3-oxo-2-[2-(2,2,2-trifluoroethoxy)phenyl]-2,3-dihydropyridazine-4-carboxamide], the inhibition at 10 µM came out at 99%.

Regarding `O=C(Nc1cnn(CC(F)(F)C(F)(F)F)c1)c1cccn(-c2ccc(F)cc2OCC(F)(F)F)c1=O` [Example 62, 1-[4-fluoro-2-(2,2,2-trifluoroethoxy)phenyl]-2-oxo-N-[1-(2,2,3,3,3-pentafluoropropyl)-1H-pyrazol-4-yl]-1,2-dihydropyridine-3-carboxamide], the inhibition at 10 µM was 77%.

`Cn1cc(C(=O)Nc2ccc(C(F)F)cc2)c(=O)c(-c2ccccc2OCC(F)F)n1` [Example 185, 6-[2-(2,2-difluoroethoxy)phenyl]-N-[4-(difluoromethyl)phenyl]-2-methyl-5-oxo-2,5-dihydropyridazine-4-carboxamide]: the inhibition at 10 µM worked out at 79%.

Turning to `CC(O)c1ccc(NC(=O)c2ccnn(-c3ccccc3OCC(F)(F)F)c2=O)nc1` (racemic) [Example 140, rac-N-[5-(1-hydroxyethyl)pyridin-2-yl]-3-oxo-2-[2-(2,2,2-trifluoroethoxy)phenyl]-2,3-dihydropyridazine-4-carboxamide], the inhibition at 10 µM was found to be 87%.

With `Cc1cc(C(C)(C)O)ccc1NC(=O)c1ccnn(-c2ccccc2OCC(F)F)c1=O` [Example 143, 2-[2-(2,2-difluoroethoxy)phenyl]-N-[4-(2-hydroxypropan-2-yl)-2-methylphenyl]-3-oxo-2,3-dihydropyridazine-4-carboxamide], the inhibition at 10 µM came out at 97%.

As to `O=C(Nc1ccc(OCC(F)(F)F)nc1)c1cccn(-c2ccnnc2OCC(F)(F)F)c1=O` [Example 79, 2-oxo-1-[3-(2,2,2-trifluoroethoxy)pyridazin-4-yl]-N-[6-(2,2,2-trifluoroethoxy)pyridin-3-yl]-1,2-dihydropyridine-3-carboxamide], the inhibition at 10 µM stood at 87%.

Turning to `O=C(Nc1ccc(C(O)(C(F)F)C(F)F)cc1)c1cn(C2COC2)nc(-c2ccccc2OCC(F)F)c1=O` [Example 184, 6-[2-(2,2-difluoroethoxy)phenyl]-2-(oxetan-3-yl)-5-oxo-N-[4-(1,1,3,3-tetrafluoro-2-hydroxypropan-2-yl)phenyl]-2,5-dihydropyridazine-4-carboxamide], the inhibition at 10 µM came out at 100%.

Regarding `O=C(Nc1ccc(C(O)(C(F)F)C(F)F)cc1)c1cccn(-c2ccc(F)cc2OCC(F)(F)F)c1=O` [Example 78, 1-[4-fluoro-2-(2,2,2-trifluoroethoxy)phenyl]-2-oxo-N-[4-(1,1,3,3-tetrafluoro-2-hydroxypropan-2-yl)phenyl]-1,2-dihydropyridine-3-carboxamide], the inhibition at 10 µM was found to be 100%.

As to `O=C(Nc1ccc(C(O)(C(F)F)C(F)F)cc1)c1ccnn(-c2ccccc2OCC(F)F)c1=O` [Example 153, 2-[2-(2,2-difluoroethoxy)phenyl]-3-oxo-N-[4-(1,1,3,3-tetrafluoro-2-hydroxypropan-2-yl)phenyl]-2,3-dihydropyridazine-4-carboxamide], the inhibition at 10 µM was found to be 100%.

The values above are taken from patent US20220289679A1, “HETEROCYCLIC COMPOUND” (Takeda Pharmaceutical Company Limited, priority 2019, published 2022).
